What was measured:
in vivo = conditions: rat, iv
Procedure: (§1) Fifteen male Han Wistar rats were obtained from Charles River Laboratories, Margate, UK. Animals were all in the target weight range of 163 to 215 g at dosing. Diet was removed at the end of the working day prior to each dose occasion, and returned 4 h after dosing.
(§2) Each animal received a single administration (Table 2). PO doses were administered by gavage at a nominal dose volume of 5 ml/kg. IV doses were administered via a lateral tail vein, at a nominal dose volume of 2 ml/kg, as a bolus injection. Body weights were recorded the day after arrival and before dose administration and used for calculation of doses. Samples of blood (nominally 150 μl) were collected from the jugular vein of each animal. For PO dosing this was done at 0.25, 0.5, 1, 2, 4, 6, 8 and 24 h post dose. For IV dosing this was at 0.016, 0.083, 0.5, 1, 2, 4, 8 and 24 h post dose. The actual blood collection time was used in the subsequent PK data analysis. Blood was collected into tubes containing the K2EDTA anticoagulant and stored at room temperature. Blood was centrifuged (1500g, 10 min, 4 °C) to produce plasma for analysis and residual blood cells were discarded.
Transfer of a 10 μl aliquot into a clean 2 ml […] collection plate • 2. Addition of 25 μl I-B (500 ng/ml). Addition of 25 μl methanol to all blanks • 3. Vortex mix plate (ca. 1 min) • 4. Addition of 80 μl methanol to all wells • 5. Vortex mix plate (ca. 2 min) • 6. Centrifuge 2000g plate for 10 min at room temperature • 7. Transfer 40 μl of supernatant to a clean 1.2 ml 96-well collection plate • 8. Dilute with 160 μl 10 mM of ammonium acetate:ammonium hydroxide (100:0.5 v/v) solution • 9. Vortex mix plate (ca. 2 min) • 10. Complete analysis by LC/MS-MS.

Male Han Wistar rats = test: Clinical signs / tolerability after single IV or PO administration
Procedure: as §1, §2
The following results were calculated for each group.

humans = test system: humans; set-up: method as in Knip et al., 2000; conditions: human adults, orally; ref Knip et al., 2000; cited from earlier work
rats = conditions: rat, in vivo, cited from earlier work

For `NC(=O)c1cccnc1` [NA, Nicotinamide, reference compound], the “time by which agent is completely cleared / plasma level returns to baseline” value (in vivo; male, Han Wistar) was at most 24 h, the AUC(0-inf) (in vivo; male, Han Wistar, 120 mg/kg) was 774 µg·h/mL and the AUC(0-t) (in vivo; male, Han Wistar, 120 mg/kg) was 573 µg·h/mL. For the same molecule, the C0 (in vivo; male, Han Wistar, 120 mg/kg) was 178 µg/mL, the Cmax (in vivo; male, Han Wistar, 120 mg/kg) was 168 µg/mL and the Vd (in vivo; male, Han Wistar, 120 mg/kg) was 0.911 L/kg. The clearance (in vivo; male, Han Wistar, 120 mg/kg) was 2.72 mL/min/kg, the half-life (in vivo; male, Han Wistar, 120 mg/kg, t½) was 4 h and the “clinical signs associated with administration” value (Male Han Wistar rats; IV or PO, doses up to 120 mg/kg, fifteen male rats) was “No clinical signs”. For the same molecule, the “adult dose at which NA is a safe therapy” value (humans) was “up to 10 g/day”, the “safe dose in rats, IP injection” value (rats; ip) was 1000 mg/kg and the “safe dose in rats, subcutaneous injection” value (rats; sc) was 750 mg/kg.
For `[2H]c1cc([2H])c(C(N)=O)cn1` [d2-NA, 4,6-d2-Nicotinamide], the “time by which agent is completely cleared / plasma level returns to baseline” value (in vivo) was at most 24 h, the C0 (in vivo; 20 mg/kg) was 28,700 ng/ml and the Cl (in vivo; 20 mg/kg) was 9.77 mL/min/kg. The Vz (in vivo; 20 mg/kg) was 0.691 L/kg, the “AUC(0–t)” value (in vivo; 60 mg/kg) was 196,000 h·ng/ml and the “AUC(0–∞)” value (in vivo; 60 mg/kg) was 197,000 h·ng/ml. The C0 (in vivo; 60 mg/kg) was 82,700 ng/ml, the Cl (in vivo; 60 mg/kg) was 5.12 mL/min/kg and the Cmax (in vivo; 60 mg/kg) was 79,400 ng/ml. For the same molecule, the Vz (in vivo; 60 mg/kg) was 0.963 L/kg, the t½ (in vivo; 60 mg/kg) was 2.23 h and the C0 (in vivo; 120 mg/kg) was 172,000 ng/ml. The Cl (in vivo; 120 mg/kg) was 4.37 mL/min/kg, the Vz (in vivo; 120 mg/kg) was 0.877 L/kg and the tolerability (Male Han Wistar rats; regardless of route of administration (IV, PO), 20, 80 and 120 mg/kg, rat) was “well tolerated”.
